# The source made the active and inactive calls. The rule behind the calls is not given here.
# Legend:
# [1] = Cytotoxicity against HUVEC cells assessed as inhibition of cell growth; format: toxicity, cell-based; conditions: human
# [2] = Cytotoxicity against HUVEC cells assessed as inhibition of cell growth incubated in presence of 3-cyclopropyl-1-(3-{5-[(morpholin-4-yl)methyl]-1H-1,3-benzodiazol-2-yl}-1H-pyrazol-4-yl)urea; format: toxicity, cell-based; conditions: human
# HEL [3] = experiment: Cytotoxicity against HEL cells assessed as inhibition of cell growth irradiated with 450 nm light and incubated in presence of 3-cyclopropyl-1-(3-{5-[(morpholin-4-yl)methyl]-1H-1,3-benzodiazol-2-yl}-1H-pyrazol-4-yl)urea; format: functional, cell-based; conditions: Homo sapiens, light or radiation study
# HEL [4] = experiment: Cytotoxicity against HEL cells assessed as inhibition of cell growth incubated under dark condition in presence of 3-cyclopropyl-1-(3-{5-[(morpholin-4-yl)methyl]-1H-1,3-benzodiazol-2-yl}-1H-pyrazol-4-yl)urea; format: functional, cell-based; conditions: Homo sapiens
# HEL [5] = experiment: Cytotoxicity against HEL cells assessed as inhibition of cell growth incubated under hypoxic condition in presence of 3-cyclopropyl-1-(3-{5-[(morpholin-4-yl)methyl]-1H-1,3-benzodiazol-2-yl}-1H-pyrazol-4-yl)urea; format: functional, cell-based; conditions: Homo sapiens
# HEL [6] = experiment: Antitumor activity against HEL cells xenografted in Balb/c nude mouse assessed as tumor growth inhibition at 32.5 mg/kg, ip administered once daily for 14 consecutive days relative to control; format: functional, Homo sapiens; conditions: 336 h, time 14 day, read-out: TGI
# HEL [7] = experiment: Antitumor activity against HEL cells xenografted in Balb/c nude mouse assessed as tumor growth inhibition at 32.5 mg/kg, ip administered once daily for 14 consecutive days in presence of 3-cyclopropyl-1-(3-{5-[(morpholin-4-yl)methyl]-1H-1,3-benzodiazol-2-yl}-1H-pyrazol-4-yl)urea relative to control; format: functional, Homo sapiens; conditions: 336 h, time 14 day, read-out: TGI
# HEL [8] = experiment: Antitumor activity against HEL cells xenografted in Balb/c nude mouse assessed as induction of apoptosis in tumor at 32.5 mg/kg, ip administered once daily for 14 consecutive days in presence of 3-cyclopropyl-1-(3-{5-[(morpholin-4-yl)methyl]-1H-1,3-benzodiazol-2-yl}-1H-pyrazol-4-yl)urea by TUNEL assay relative to control; format: functional, organism-based; conditions: Homo sapiens, time 14.0 day
# BaF3 = experiment: Cytotoxicity against mouse BaF3 cells harboring EPOR JAK2 V617F mutant; format: functional, cell-based
# HEL [9] = experiment: Cytotoxicity against HEL cells assessed as inhibition of cell growth; format: functional, cell-based; conditions: Homo sapiens
# HEL [10] = experiment: Cytotoxicity against HEL cells assessed as inhibition of cell growth incubated in presence of 3-cyclopropyl-1-(3-{5-[(morpholin-4-yl)methyl]-1H-1,3-benzodiazol-2-yl}-1H-pyrazol-4-yl)urea; format: functional, cell-based; conditions: Homo sapiens
# HEL [11] = experiment: Cytotoxicity against HEL cells assessed as inhibition of cell growth incubated in presence of decernotinib; format: functional, cell-based; conditions: Homo sapiens
# HEL [12] = experiment: Cytotoxicity against HEL cells assessed as inhibition of cell growth incubated in presence of tofacitinib; format: functional, cell-based; conditions: Homo sapiens
# HEL [13] = experiment: Cytotoxicity against HEL cells assessed as inhibition of cell growth incubated in presence of ruxolitinib; format: functional, cell-based; conditions: Homo sapiens
# HEL [14] = experiment: Synergistic cytotoxicity against HEL cells assessed as combination index for 25% activity in presence of 3-cyclopropyl-1-(3-{5-[(morpholin-4-yl)methyl]-1H-1,3-benzodiazol-2-yl}-1H-pyrazol-4-yl)urea; format: functional, Homo sapiens
# HEL [15] = experiment: Synergistic cytotoxicity against HEL cells assessed as combination index for 25% activity in presence of decernotinib; format: functional, Homo sapiens
# HEL [16] = experiment: Synergistic cytotoxicity against HEL cells assessed as combination index for 25% activity in presence of tofacitinib; format: functional, Homo sapiens
# HEL [17] = experiment: Synergistic cytotoxicity against HEL cells assessed as combination index for 25% activity in presence of ruxolitinib; format: functional, Homo sapiens
# HEL [18] = experiment: Synergistic cytotoxicity against HEL cells assessed as combination index for 50% activity in presence of 3-cyclopropyl-1-(3-{5-[(morpholin-4-yl)methyl]-1H-1,3-benzodiazol-2-yl}-1H-pyrazol-4-yl)urea; format: functional, Homo sapiens
# HEL [19] = experiment: Synergistic cytotoxicity against HEL cells assessed as combination index for 50% activity in presence of decernotinib; format: functional, Homo sapiens
# HEL [20] = experiment: Synergistic cytotoxicity against HEL cells assessed as combination index for 50% activity in presence of tofacitinib; format: functional, Homo sapiens
# HEL [21] = experiment: Synergistic cytotoxicity against HEL cells assessed as combination index for 50% activity in presence of ruxolitinib; format: functional, Homo sapiens
# HEL [22] = experiment: Synergistic cytotoxicity against HEL cells assessed as combination index for 75% activity in presence of 3-cyclopropyl-1-(3-{5-[(morpholin-4-yl)methyl]-1H-1,3-benzodiazol-2-yl}-1H-pyrazol-4-yl)urea; format: functional, Homo sapiens
# HEL [23] = experiment: Synergistic cytotoxicity against HEL cells assessed as combination index for 75% activity in presence of decernotinib; format: functional, Homo sapiens
# HEL [24] = experiment: Synergistic cytotoxicity against HEL cells assessed as combination index for 75% activity in presence of tofacitinib; format: functional, Homo sapiens
# HEL [25] = experiment: Synergistic cytotoxicity against HEL cells assessed as combination index for 75% activity in presence of ruxolitinib; format: functional, Homo sapiens
# HEL [26] = experiment: Synergistic cytotoxicity against HEL cells assessed as combination index for 95% activity in presence of 3-cyclopropyl-1-(3-{5-[(morpholin-4-yl)methyl]-1H-1,3-benzodiazol-2-yl}-1H-pyrazol-4-yl)urea; format: functional, Homo sapiens
# HEL [27] = experiment: Synergistic cytotoxicity against HEL cells assessed as combination index for 95% activity in presence of decernotinib; format: functional, Homo sapiens
# HEL [28] = experiment: Synergistic cytotoxicity against HEL cells assessed as combination index for 95% activity in presence of tofacitinib; format: functional, Homo sapiens
# HEL [29] = experiment: Synergistic cytotoxicity against HEL cells assessed as combination index for 95% activity in presence of ruxolitinib; format: functional, Homo sapiens
# HEL [30] = experiment: Cytotoxicity against HEL cells assessed as inhibition of cell growth at 100 uM relative to control; format: functional; conditions: Homo sapiens
# HEL [31] = experiment: Cytotoxicity against HEL cells assessed as inhibition of cell growth at 50 uM relative to control; format: functional; conditions: Homo sapiens
# HEL [32] = experiment: Cytotoxicity against HEL cells assessed as inhibition of cell growth at 25 uM relative to control; format: functional; conditions: Homo sapiens
# HEL [33] = experiment: Cytotoxicity against HEL cells assessed as inhibition of cell growth at 5 uM relative to control; format: functional; conditions: Homo sapiens
# HEL [34] = experiment: Cytotoxicity against HEL cells assessed as inhibition of cell growth at 1 uM relative to control; format: functional; conditions: Homo sapiens
# HEL [35] = experiment: Cytotoxicity against HEL cells assessed as inhibition of cell growth at 0.2 uM relative to control; format: functional; conditions: Homo sapiens
# HEL [36] = experiment: Cytotoxicity against HEL cells assessed as inhibition of cell growth at 0.04 uM relative to control; format: functional; conditions: Homo sapiens
# HEL [37] = experiment: Cytotoxicity against HEL cells assessed as inhibition of cell growth at 0.008 uM relative to control; format: functional; conditions: Homo sapiens
# HEL [38] = experiment: Cytotoxicity against HEL cells assessed as inhibition of cell growth at 0.0016 uM relative to control; format: functional; conditions: Homo sapiens
smiles,measurement,setting,value
Cc1cnc(Nc2ccc(N3CCNCC3)cc2)nc1Nc1cccc(S(=O)(=O)NC(C)(C)C)c1,IC50,[1],960 nM
same,IC50,[2],1760 nM
same,IC50,HEL [3],2180 nM
same,IC50,HEL [4],1410 nM
same,IC50,HEL [5],1340 nM
same,inhibition in vivo at 32.5 mg/kg,HEL [6],62.3%
same,inhibition in vivo at 32.5 mg/kg,HEL [7],91.2%
same,Activity,HEL [8],Active
same,IC50,BaF3,276 nM
same,IC50,HEL [9],1160 nM
same,IC50,HEL [10],550 nM
same,IC50,HEL [11],3070 nM
same,IC50,HEL [12],1530 nM
same,IC50,HEL [13],2450 nM
same,CI25,HEL [14],0.683
same,CI25,HEL [15],2.597
same,CI25,HEL [16],2.161
same,CI25,HEL [17],2.447
same,CI50,HEL [18],0.809
same,CI50,HEL [19],2.226
same,CI50,HEL [20],1.636
same,CI50,HEL [21],2.528
same,CI75,HEL [22],0.972
same,CI75,HEL [23],1.947
same,CI75,HEL [24],1.243
same,CI75,HEL [25],2.613
same,CI95,HEL [26],1.366
same,CI95,HEL [27],1.628
same,CI95,HEL [28],0.948
same,CI95,HEL [29],2.769
same,inhibition at 100 µM,HEL [30],95.6%
same,inhibition at 50 µM,HEL [31],94.5%
same,inhibition at 25 µM,HEL [32],95%
same,inhibition at 5 µM,HEL [33],70.9%
same,inhibition at 1 µM,HEL [34],40.3%
same,inhibition at 0.2 µM,HEL [35],16.5%
same,inhibition at 0.04 µM,HEL [36],14.2%
same,inhibition at 0.008 µM,HEL [37],-2.98%
same,inhibition at 0.0016 µM,HEL [38],3.19%

# Reference: ChEMBL document CHEMBL5385890, “A JAK tyrosine kinase and pseudokinase Co-inhibition strategy combines enhanced potency and on-demand activation” (Eur J Med Chem, 2023)
